Measured values taken from ChEMBL document CHEMBL1201862, “PubChem BioAssay data set” (2004).
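Compound exposure: 48 hours, 5 concentrations, 96-well plates. GI50 is the concentration that inhibits growth by half.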 The source made the active and inactive calls. Rule as the data show it: active = GI50 up to about 1.1 µM and inactive = higher.

Legend:
Experiment in all cases: DTP human tumour cell line panel, 48 h
[1] = system: T47D
[2] = system: MOLT-4
[3] = system: UACC-62
[4] = system: SK-MEL-28
[5] = system: MDA-MB-231
[6] = system: IGROV-1
[7] = system: HCT-116
[8] = system: EKVX
[9] = system: KM12
[10] = system: SF-295
[11] = system: HL-60
[12] = system: NCI-H23
[13] = system: SW-620
[14] = system: HCC 2998
[15] = system: 786-0
[16] = system: DU-145
[17] = system: SR
[18] = system: HT-29
[19] = system: NCI/ADR-RES
[20] = system: SNB-19
[21] = system: NCI-H226
[22] = system: SNB-75
[23] = system: NCI-H460
[24] = system: HOP-62
[25] = system: HCT-15
[26] = system: COLO 205
[27] = system: RXF 393
[28] = system: SK-MEL-2
[29] = system: SK-MEL-5
[30] = system: Hs-578T
[31] = system: SN12C
[32] = system: MDA-MB-435
[33] = system: OVCAR-4
[34] = system: NCI-H522
[35] = system: ACHN
[36] = system: K562
[37] = system: UACC-257
[38] = system: U-251
[39] = system: UO-31
[40] = system: BT-549
[41] = system: Malme-3M
[42] = system: MDA-N
[43] = system: TK-10
[44] = system: SF-268
[45] = system: OVCAR-3
[46] = system: RPMI-8226
[47] = system: PC-3
[48] = system: LOX IMVI
[49] = system: MCF7
[50] = system: OVCAR-5
[51] = system: CAKI-1
[52] = system: A498
[53] = system: OVCAR-8

COc1ccc(-n2c(C)nc3ccc(NC4OC(CO)C(O)C(O)C4O)cc3c2=O)cc1 (stereo not drawn)
GI50 [1]: > 100 µM (inactive) | GI50 [2]: > 100 µM (inactive) | GI50 [3]: > 100 µM (inactive) | GI50 [4]: > 100 µM (inactive) | GI50 [5]: > 100 µM (inactive) | GI50 [6]: > 100 µM (inactive) | GI50 [7]: > 100 µM (inactive) | GI50 [8]: > 100 µM (inactive) | GI50 [9]: > 100 µM (inactive) | GI50 [10]: > 100 µM (inactive) | GI50 [11]: > 100 µM (inactive) | GI50 [12]: > 100 µM (inactive) | GI50 [13]: > 100 µM (inactive) | GI50 [14]: > 100 µM (inactive) | GI50 [15]: > 100 µM (inactive) | GI50 [16]: > 100 µM (inactive) | GI50 [17]: > 100 µM (inactive) | GI50 [18]: > 100 µM (inactive) | GI50 [19]: > 100 µM (inactive) | GI50 [20]: > 100 µM (inactive) | GI50 [21]: > 100 µM (inactive) | GI50 [22]: > 100 µM (inactive) | GI50 [23]: > 100 µM (inactive) | GI50 [24]: > 100 µM (inactive) | GI50 [25]: > 100 µM | GI50 [26]: > 100 µM (inactive) | GI50 [27]: > 100 µM (inactive) | GI50 [28]: 97.5 µM (inactive) | GI50 [29]: > 100 µM (inactive) | GI50 [30]: > 100 µM (inactive) | GI50 [31]: > 100 µM (inactive) | GI50 [32]: > 100 µM (inactive) | GI50 [33]: > 100 µM (inactive) | GI50 [34]: > 100 µM (inactive) | GI50 [35]: > 100 µM (inactive) | GI50 [36]: > 100 µM (inactive) | GI50 [37]: > 100 µM (inactive) | GI50 [38]: > 100 µM (inactive) | GI50 [39]: > 100 µM (inactive) | GI50 [40]: > 100 µM (inactive) | GI50 [41]: > 100 µM (inactive) | GI50 [42]: > 100 µM (inactive) | GI50 [43]: > 100 µM (inactive) | GI50 [44]: > 100 µM (inactive) | GI50 [45]: > 100 µM (inactive) | GI50 [46]: > 100 µM (inactive) | GI50 [47]: > 100 µM (inactive) | GI50 [48]: > 100 µM (inactive) | GI50 [49]: > 100 µM (inactive) | GI50 [50]: > 100 µM (inactive) | GI50 [51]: > 100 µM (inactive) | GI50 [52]: > 100 µM (inactive) | GI50 [53]: > 100 µM (inactive)
